What was measured:
Assay type in all cases: in vivo
[1] = test system: Echinochloa crus-galli (ECHCG); test: Example B pre-emergence herbicidal activity; conditions: 312 h, rate 250 g/ha, evaluated after 13 days, read-out: Pre-Emergence Activity ECHCG (100=total damage to plant; 0=no damage to plant)
In short: (§1)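 Damage was rated 13 days after treatment on a 0 (no damage) to 100 (total damage) scale. Pots of soil-sown plants had been sprayed one day after sowing for pre-emergence or at 8 days for post-emergence. Spray: acetone/water (50:50), 0.5% Tween 20.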

[2] = test system: Amaranthus retoflexus (AMARE); test: Example B pre-emergence herbicidal activity; conditions: Amaranthus retroflexus, 312 h, rate 250 g/ha, evaluated after 13 days, read-out: Pre-Emergence Activity AMARE (100=total damage to plant; 0=no damage to plant)
In short: as §1

[3] = test system: Alopecurus myosuroides (ALOMY); test: Example B pre-emergence herbicidal activity; conditions: 312 h, rate 250 g/ha, evaluated after 13 days, read-out: Pre-Emergence Activity ALOMY (100=total damage to plant; 0=no damage to plant)
In short: as §1

[4] = test system: Avena fatua (AVEFA); test: Example B pre-emergence herbicidal activity; conditions: 312 h, rate 250 g/ha, evaluated after 13 days, read-out: Pre-Emergence Activity AVEFA (100=total damage to plant; 0=no damage to plant)
In short: as §1

[5] = test system: Setaria faberi (SETFA); test: Example B pre-emergence herbicidal activity; conditions: 312 h, rate 250 g/ha, evaluated after 13 days, read-out: Pre-Emergence Activity SETFA (100=total damage to plant; 0=no damage to plant)
In short: as §1

[6] = test system: Echinochloa crus-galli (ECHCG); test: Example B post-emergence herbicidal activity; conditions: 312 h, rate 250 g/ha, evaluated after 13 days, read-out: Post-emergence activity ECHCG (100=total damage to plant; 0=no damage to plant)
In short: as §1

[7] = test system: Amaranthus retoflexus (AMARE); test: Example B post-emergence herbicidal activity; conditions: Amaranthus retroflexus, 312 h, rate 250 g/ha, evaluated after 13 days, read-out: Post-emergence activity AMARE (100=total damage to plant; 0=no damage to plant)
In short: as §1

[8] = test system: Alopecurus myosuroides (ALOMY); test: Example B post-emergence herbicidal activity; conditions: 312 h, rate 250 g/ha, evaluated after 13 days, read-out: Post-emergence activity ALOMY (100=total damage to plant; 0=no damage to plant)
In short: as §1

[9] = test system: Avena fatua (AVEFA); test: Example B post-emergence herbicidal activity; conditions: 312 h, rate 250 g/ha, evaluated after 13 days, read-out: Post-emergence activity AVEFA (100=total damage to plant; 0=no damage to plant)
In short: as §1

[10] = test system: Setaria faberi (SETFA); test: Example B post-emergence herbicidal activity; conditions: 312 h, rate 250 g/ha, evaluated after 13 days, read-out: Post-emergence activity SETFA (100=total damage to plant; 0=no damage to plant)
In short: as §1

| SMILES | pest or weed control at 250 g/ha [1] [%] | pest or weed control at 250 g/ha [2] [%] | pest or weed control at 250 g/ha [3] [%] | pest or weed control at 250 g/ha [4] [%] | pest or weed control at 250 g/ha [5] [%] | pest or weed control at 250 g/ha [6] [%] | pest or weed control at 250 g/ha [7] [%] | pest or weed control at 250 g/ha [8] [%] | pest or weed control at 250 g/ha [9] [%] | pest or weed control at 250 g/ha [10] [%] |
| --- | --- | --- | --- | --- | --- | --- | --- | --- | --- | --- |
| CCc1sc(-c2cnc(Cl)cc2C)nc1C1C(=O)[C@@H]2CC[C@@H](C2)C1=O (stereo partly drawn) [Compound T110] | 60 | 20 | 30 | 30 | 100 | 90 | 0 | 60 | 70 | 100 |
| CCc1sc(-c2ccc(Cl)s2)nc1C1C(=O)[C@@H]2CC[C@@H](C2)C1=O (stereo partly drawn) [Compound T36] | 60 | 0 | 60 | 20 | 70 | 100 | 0 | 90 | 20 | 100 |
| CCc1sc(-c2cc(F)c(OC)cc2F)nc1C1C(=O)[C@@H]2CC[C@@H](C2)C1=O (stereo partly drawn) [Compound T102] | 70 | 0 | 50 | 30 | 50 | 100 | 0 | 100 | 100 | 100 |
| Cc1sc(-c2ccc(OC(F)F)cc2Cl)nc1C1=C(OC(=O)C(C)(C)C)[C@@H]2CC[C@@H](C2)C1=O [Compound P17] | 100 | 0 | 80 | 50 | 100 | 100 | 0 | 90 | 80 | 100 |
| Cc1sc(-c2ccc(Cl)c(C(F)(F)F)c2)nc1C1=C(OC(=O)C(C)(C)C)[C@H]2CC[C@H](C2)C1=O [Compound P4] | 0 | 40 | 0 | 0 | 90 | 80 | 0 | 20 | 0 | 80 |
| Cc1sc(-c2ccc(F)cc2F)nc1C1C(=O)[C@@H]2CC[C@@H](C2)C1=O (stereo partly drawn) [Compound T70] | 60 | 100 | 70 | 30 | 100 | 100 | 40 | 90 | 50 | 100 |
| Cc1sc(-c2ccccc2)nc1C1C(=O)[C@@H]2CC[C@@H](C2)C1=O (stereo partly drawn) [Compound T56] | 40 | 0 | 0 | 0 | 0 | 60 | 0 | 0 | 0 | 70 |
| CCOC(=O)/C=C/OC1=C(c2nc(-c3ccc(Cl)cc3)sc2CC)C(=O)[C@H]2CC[C@@H]1C2 [Compound P5] | 40 | 0 | 100 | 30 | 100 | 100 | 0 | 100 | 90 | 100 |
| CCc1sc(-c2ccccc2Cl)nc1C1C(=O)[C@@H]2CC[C@@H](C2)C1=O (stereo partly drawn) [Compound T106] | 10 | 0 | 0 | 0 | 20 | 30 | 0 | 10 | 0 | 70 |
| Cc1sc(-c2ccc(Cl)cc2Cl)nc1C1C(=O)[C@@H]2CC[C@@H](C2)C1=O (stereo partly drawn) [Compound T3] | 80 | 0 | 60 | 0 | 90 | 100 | 0 | 90 | 60 | 100 |
| CCc1sc(-c2c(F)cc(Cl)cc2F)nc1C1C(=O)[C@@H]2CC[C@@H](C2)C1=O (stereo partly drawn) [Compound T29] | 100 | 20 | 90 | 90 | 100 | 100 | 0 | 100 | 100 | 100 |
| Cc1ccc(-c2nc(C3C(=O)[C@@H]4CC[C@@H](C4)C3=O)c(C)s2)cc1 (stereo partly drawn) [Compound T11] | 70 | 0 | 40 | 0 | 0 | 100 | 0 | 90 | 40 | 80 |
| Cc1sc(-c2ccc3ccccc3c2)nc1C1C(=O)[C@@H]2CC[C@@H](C2)C1=O (stereo partly drawn) [Compound T63] | 100 | 0 | 90 | 90 | 90 | 100 | 0 | 60 | 70 | 100 |
| COc1ccc(-c2nc(C3C(=O)[C@@H]4CC[C@@H](C4)C3=O)c(C)s2)cc1F (stereo partly drawn) [Compound T76] | 50 | 0 | 0 | 0 | 70 | 90 | 0 | 70 | 50 | 80 |
| Cc1sc(-c2ccc(C#N)cc2)nc1C1C(=O)[C@@H]2CC[C@@H](C2)C1=O (stereo partly drawn) [Compound T65] | 100 | 20 | 50 | 20 | 100 | 100 | 70 | 50 | 70 | 100 |
